Molecular target: T1, human Cot/Tpl2 kinase (Homo sapiens, UniProt P41279)
T1 construct: human Cot/Tpl2 kinase construct encoding residues 30-398; 6His (N); made in house; host or cells: Sf9 insect cells, baculovirus system (BD Biosciences)
Experiment: Tpl2/Cot kinase assay: GST-MEK1 phosphorylation detected by ELISA (DELFIA Eu)
Format: biochemical
Settings: 0.4 nM Tpl2, 35 nM GST-MEK1, 50 uM ATP, 1 h at 30° C.
Method in brief: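 His-tagged human Tpl2 from Sf9 cells, Ni-affinity and size-exclusion purified (monomer). 0.4 nM Tpl2 with 35 nM GST-MEK1, 50 uM ATP, MOPS pH 7.2, 1% DMSO, 1 h at 30° C; EDTA stop. MEK1 Ser217/221 phosphorylation detected by anti-phospho-MEK1 and Eu-labelled secondary ELISA; IC50 fitted.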

T1 sequence (P41279 30-398): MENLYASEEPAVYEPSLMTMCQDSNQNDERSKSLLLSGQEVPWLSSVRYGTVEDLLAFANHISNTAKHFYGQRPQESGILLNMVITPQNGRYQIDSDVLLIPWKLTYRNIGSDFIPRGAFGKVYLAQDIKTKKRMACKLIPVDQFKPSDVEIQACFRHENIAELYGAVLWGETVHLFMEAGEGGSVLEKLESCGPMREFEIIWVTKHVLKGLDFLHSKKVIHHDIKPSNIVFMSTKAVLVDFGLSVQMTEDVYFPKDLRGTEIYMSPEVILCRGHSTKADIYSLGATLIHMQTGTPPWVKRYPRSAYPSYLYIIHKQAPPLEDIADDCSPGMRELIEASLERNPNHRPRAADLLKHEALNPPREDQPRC

Row | Compound | IC50 [nM]
1 | N#Cc1cnc2c(Cl)cc(NCc3[nH]cnc3CCCO)cc2c1Nc1ccc(F)c(Cl)c1 [Example 205, 8-chloro-4-[(3-chloro-4-fluorophenyl)amino]-6-({[4-(3-hydroxypropyl)-1H-imidazol-5-yl]methyl}amino)quinoline-3-carbonitrile] | 3.2
2 | N#Cc1cnc2c(Cl)cc(NCc3cc[n+]([O-])cc3)cc2c1Nc1ccc(F)c(Cl)c1 [Example 271, 8-Chloro-4-[(3-chloro-4-fluorophenyl)amino]-6-{[(1-oxidopyridin-4-yl)methyl]amino}quinoline-3-carbonitrile] | 54
3 | COC(=O)Cn1ccnc1CNc1ccc2ncc(C#N)c(Nc3ccc(F)c(Cl)c3)c2c1 [Example 137, Methyl 2-(2-((4-(3-chloro-4-fluorophenylamino)-3-cyanoquinolin-6-ylamino)methyl)-1H-imidazol-1-yl)acetate] | 28
4 | 4-(3-Chloro-4-fluoro-phenylamino)-6-[(tetrahydro-furan-2-ylmethyl)-amino]-quinoline-3-carbonitrile [Example 41] | 2200
5 | N#Cc1cnc2c(Br)cc(NCc3cn(CCN4CCCCC4)nn3)cc2c1Nc1ccc(F)c(Cl)c1 [Example 296, 8-Bromo-4-(3-chloro-4-fluoro-phenylamino)-6-{[1-(2-piperidin-1-yl-ethyl)-1H-[1,2,3]triazol-4-ylmethyl]-amino}-quinoline-3-carbonitrile] | 15
6 | CS(=O)(=O)c1cccc(CNc2ccc3ncc(C#N)c(NC4CCCCCC4)c3c2)c1 [Example 248, 4-(cycloheptylamino)-6-{[3-(methylsulfonyl)benzyl]amino}quinoline-3-carbonitrile] | 2500
7 | N#Cc1cnc2c(Cl)cc(NCc3nnn[nH]3)cc2c1Nc1ccc(F)c(Cl)c1 [Example 279, 8-Chloro-4-[(3-chloro-4-fluorophenyl)amino]-6-[(1 H-tetrazol-5-ylmethyl)amino]quinoline-3-carbonitrile] | 2.6
8 | CC(C)NC(=O)c1cc(NCc2cccnc2)cc2c(Nc3ccc(F)c(Cl)c3)c(C#N)cnc12 [Example 93, 4-(3-chloro-4-fluorophenylamino)-3-cyano-N-isopropyl-6-(pyridin-3-ylmethylamino)quinoline-8-carboxamide] | > 40000
9 | N#Cc1ccc(OCC(=O)O)c(CNc2ccc3ncc(C#N)c(Nc4ccc(F)c(Cl)c4)c3c2)c1 [Example 44, (2-{[4-(3-Chloro-4-fluoro-phenylamino)-3-cyano-quinolin-6-ylamino]-methyl}-4-cyano-phenoxy)-acetic acid] | 3300
10 | Cc1c(CNc2cc(Cl)c3ncc(C#N)c(Nc4ccc(F)c(Cl)c4)c3c2)ncn1C [Example 183, 8-chloro-4-(3-chloro-4-fluorophenylamino)-6-((1,5-dimethyl-1H-imidazol-4-yl)methylamino)quinoline-3-carbonitrile] | 22
11 | CC(C)(C)OC(=O)N1CCC(CNc2cc(Cl)c3ncc(C#N)c(Nc4ccc(F)c(Cl)c4)c3c2)CC1 [Example 322, tert-butyl 4-((8-chloro-4-(3-chloro-4-fluorophenylamino)-3-cyanoquinolin-6-ylamino)methyl)piperidine-1-carboxylate] | 2120
12 | N#Cc1cnc2c(Cl)cc(NCCn3cc(CCO)nn3)cc2c1Nc1ccc(F)c(Cl)c1 [Example 213, 8-chloro-4-[(3-chloro-4-fluorophenyl)amino]-6-({2-[4-(2-hydroxyethyl)-1H-1,2,3-triazol-1-yl]ethyl}amino)quinoline-3-carbonitrile] | 1500
13 | Cc1ccc[n+]([O-])c1CNc1cc(Cl)c2ncc(C#N)c(Nc3ccc(F)c(Cl)c3)c2c1 [Example 196, 8-chloro-4-[(3-chloro-4-fluorophenyl)amino]-6-{[(3-methyl-1-oxidopyridin-2-yl)methyl]amino}quinoline-3-carbonitrile] | 66
14 | N#Cc1cnc2ccc(NCc3nccn3CC(N)=O)cc2c1Nc1ccc(F)c(Cl)c1 [Example 139, 2-(2-((4-(3-chloro-4-fluorophenylamino)-3-cyanoquinolin-6-ylamino)methyl)-1H-imidazol-1-yl)acetamide] | 99

Same assay, conditions: Table 2; Tpl2/Cot kinase, GST-MEK1 substrate, 50 uM ATP

Row | Compound | IC50 [nM]
15 | Cn1nc(CNc2cc(Br)c3ncc(C#N)c(Nc4ccc(F)c(Cl)c4)c3c2)cc1-c1ccccc1 [Example 453] | > 40000
16 | CN1CCC(CCn2cc(CNc3cc(Br)c4ncc(C#N)c(Nc5ccc(F)c(Cl)c5)c4c3)nn2)CC1 [Example 520] | 44
17 | N#Cc1cnc2ccc(NCc3cnc[nH]3)cc2c1NC1CCCC1 [Example 417] | 300
18 | C=CCn1cnc(CNc2cc(Br)c3ncc(C#N)c(Nc4ccc(F)c(Cl)c4)c3c2)c1 [Example 551] | 4.8
19 | CC(C)N1CCC(Nc2ccc3ncc(C#N)c(Nc4ccc(F)c(Cl)c4)c3c2)CC1 [Example 366] | 25500
20 | CN(C)CCn1cc(CNc2cc(Br)c3ncc(C#N)c(Nc4ccc(F)c(Cl)c4)c3c2)nn1 [Example 481] | 24
21 | N#Cc1cnc2c(C(F)(F)F)cc(N)cc2c1Nc1ccc(F)c(Cl)c1 [Example 394] | 5800
22 | COCCOc1ccc(CNc2ccc3ncc(C#N)c(Nc4ccc(F)c(Cl)c4)c3c2)cc1Br [Example 371] | 380
23 | N#Cc1cnc2c(Br)cc(NCc3cn(CCCO)nn3)cc2c1Nc1ccc(F)c(Cl)c1 [Example 523] | 18
24 | CC(C)(C)OC(=O)N1CCCC1Cn1cc(CNc2cc(Cl)c3ncc(C#N)c(Nc4ccc(F)c(Cl)c4)c3c2)nn1 (stereo not shown) [Example 543] | 320
25 | N#Cc1cnc2c(Br)cc(NCc3nc[nH]n3)cc2c1Nc1ccc(F)c(Cl)c1 [Example 484] | 110
26 | C=Cc1cc(NCc2cnc[nH]2)cc2c(Nc3ccc(F)c(Cl)c3)c(C#N)cnc12 [Example 457] | 170
27 | CC(=O)c1cc(NCc2cnc[nH]2)cc2c(Nc3ccc(F)c(Cl)c3)c(C#N)cnc12 [Example 459] | 23
28 | CONC(=O)CNc1cc(Cl)c2ncc(C#N)c(Nc3ccc(F)c(Cl)c3)c2c1 [Example 472] | 160
29 | N#Cc1cnc2c(O)cc(N)cc2c1Nc1ccc(F)c(Cl)c1 [Example 421] | 10600

Same assay, conditions: Tpl2/Cot kinase, GST-MEK1 substrate, 50 uM ATP

Row | Compound | IC50 [nM]
30 | N#Cc1cnc2c(Br)cc(NCc3cn(-c4ccncc4)cn3)cc2c1Nc1ccc(F)c(Cl)c1 [Example 725] | 23
31 | N#Cc1cnc2c(Br)cc(NCc3cncn3CCN3CCOCC3)cc2c1Nc1ccc(F)c(Cl)c1 [Example 668] | 160
32 | CN1CCC(n2cc(CN(C)c3cc(Br)c4ncc(C#N)c(Nc5ccc(F)c(Cl)c5)c4c3)nn2)CC1 [Example 681] | 22
33 | CN(C)C(=O)Cn1cc(CNc2cc(Cl)c3ncc(C#N)c(Nc4ccc(F)c(Cl)c4)c3c2)nn1 [Example 788] | 5
34 | N#Cc1cnc2c(Br)cc(NCc3cn(Cc4cncnc4)nn3)cc2c1Nc1ccc(F)c(Cl)c1 [Example 880] | 2.5
35 | N#Cc1cnc2c(Cl)cc(NCCNS(=O)(=O)c3ccccn3)cc2c1Nc1ccc(F)c(Cl)c1 [Example 856] | 820
36 | N#Cc1cnc2c(Br)cc(NCc3cn(CCO)nn3)cc2c1Nc1ccc(F)c(Cl)c1 [Example 686] | 28
37 | CN(C)C(=O)N1CCC(Cn2cc(CNc3cc(Cl)c4ncc(C#N)c(Nc5ccc(F)c(Cl)c5)c4c3)nn2)CC1 [Example 828] | 2.6
38 | COCCNCC(=O)N1CCCC(CNc2cc(Cl)c3ncc(C#N)c(Nc4ccc(F)c(Cl)c4)c3c2)C1 (stereo not shown) [Example 904] | 260
39 | CC(C)C(=O)NCCCn1cc(CNc2cc(Cl)c3ncc(C#N)c(Nc4ccc(F)c(Cl)c4)c3c2)nn1 [Example 911] | 2.4
40 | N#Cc1cnc2c(Cl)cc(NC3CCCC3Cl)cc2c1Nc1ccc(F)c(Cl)c1 (stereo not shown) [Example 782] | > 3000
41 | N#Cc1cnc2c(Cl)cc(NCCNC(=O)c3ccccn3)cc2c1Nc1ccc(F)c(Cl)c1 [Example 859] | > 3000
42 | CC(C)NC(=O)Cn1cc(CNc2cc(Cl)c3ncc(C#N)c(Nc4ccc(F)c(Cl)c4)c3c2)nn1 [Example 813] | 3.5
43 | CC(=O)N(CCNc1cc(Cl)c2ncc(C#N)c(Nc3ccc(F)c(Cl)c3)c2c1)Cc1ccccn1 [Example 846] | 170
44 | N#Cc1cnc2c(Cl)cc(NCCNC(=O)c3cncnc3)cc2c1Nc1ccc(F)c(Cl)c1 [Example 864] | 650

Same assay, conditions: Tpl2/Cot kinase, GST-MEK1 substrate, 50 uM ATP, 1 h at 30° C.; Table 2

Row | Compound | IC50 [nM]
45 | N#Cc1cnc2c(Cl)cc(NCc3cn(Cc4cncc(C(O)(C(F)(F)F)C(F)(F)F)c4)nn3)cc2c1Nc1ccc(F)c(Cl)c1 [Example 1025] | 910
46 | CC(C)N1CCC(n2cc(CNc3cc(Cl)c4ncc(C#N)c(NC5CCC5)c4c3)nn2)CC1 [Example 999] | 130
47 | CC(C)(C)OC(=O)N1CCC(n2cc(CNc3cc(Cl)c4ncc(C#N)c(Nc5ccc(F)c(Cl)c5)c4c3)nn2)CC1 [Example 925] | 73
48 | CC(C)(C)OC(=O)N1CC=C(c2cncc(CNc3cc(Cl)c4ncc(C#N)c(Nc5ccc(F)c(Cl)c5)c4c3)c2)CC1 [Example 1051] | > 3000
49 | CN1CCN(CCn2cc(CNc3cc(Cl)c4ncc(C#N)c(Nc5ccc(F)c(Cl)c5)c4c3)nn2)CC1 [Example 963] | 650
50 | N#Cc1cnc2c(Cl)cc(NCc3cn(CCN4CCCCCC4)nn3)cc2c1NC1CCC1 [Example 955] | 440
51 | N#Cc1cnc2c(Cl)cc(NCc3cn(C4CCCNCC4)nn3)cc2c1Nc1ccc(F)c(Cl)c1 (stereo not shown) [Example 1007] | 16
52 | N#Cc1cnc2ccc(NCc3cn(C4CCNCC4)nn3)cc2c1NC1CCCCC1 [Example 977] | 130
53 | CC(C)(C)OC(=O)N1CCC(n2cc(CNc3cc(Cl)c4ncc(C#N)c(NC5CCCC6(CCCC6)C5)c4c3)nn2)CC1 (stereo not shown) [Example 974] | > 3000
54 | N#Cc1cnc2c(Cl)cc(NCc3cn(C4CCCN(CC(F)(F)C(F)(F)F)CC4)nn3)cc2c1Nc1ccc(F)c(Cl)c1 (stereo not shown) [Example 1012] | > 3000
55 | Cn1cc(CNc2cc(Cl)c3ncc(C#N)c(Nc4ccc(F)c(Cl)c4)c3c2)cn1 [Example 1026] | 290

From US20060264460A1 (Wyeth, priority 2005, published 2006)
